Literature values, collected in patent publication US20210023029A1, “EDASALONEXENT DOSING REGIMEN FOR TREATING MUSCULAR DYSTROPHY” (Catabasis Pharmaceuticals, Inc., priority 2017, published 2021).

Test system: mdx mice
Conditions: long-term studies on mdx mice; cited from earlier work

CC/C=C\C/C=C\C/C=C\C/C=C\C/C=C\CCCC(=O)NCCNC(=O)c1ccccc1O [CAT-1041]
muscle function, skeletal muscle weight and muscle fibrosis: preserves muscle function, increases skeletal muscle weight, and reduces muscle fibrosis
